Data reported in patent publication US20090068290A1, “BIFEPRUNOX DOSES FOR TREATING SCHIZOPHRENIA” (priority 2006, published 2009).

Legend:
[1] = test system: adult subjects with schizophrenia; experiment: PANSS general psychopathology subscale score, Clinical Study One; type: in vivo, human; conditions: for Change from Baseline in PANSS General Psychopathology Subscale Score, Mean (S.D.) / Change from Baseline in PANSS General Psychopathology Subscale Score, Median / Trt Effect (versus placebo), PANSS General Psychopathology Subscale Score: ITT population; for Trt Effect (versus placebo), PANSS General Psychopathology Subscale Score: ANCOVA
Experimental: (§1) There were five treatment groups in this study. […] Study medication was administered once daily. After Baseline measurements were performed, the titration phase was begun. Bifeprunox treated subjects were titrated up to 5 mg, 10 mg or 20 mg according to a standardized titration schedule (Day 1: 0.125 mg, Day 2: 0.25 mg, Day 3: 0.5 mg, Day 4: 1.0 mg, Day 5: 2.0 mg, Day 6: 5.0 mg, Day 7: 10.0 mg, Day 8: 20 mg). When the assigned dose was reached, subjects were maintained at that dose for the remainder of the six-week treatment period.
The change in the Positive and Negative Symptom Scale (PANSS) total score, from baseline to endpoint, was the primary outcome measure. Secondary efficacy measures included: PANSS positive, PANSS negative, PANSS general psychopathology (GPP) score, PANSS-derived Brief Psychiatric Rating Scale (BPRS) score, Clinical Global Impressions-Severity of Illness (CGI-S), CGI-Improvement (CGI-I) scores, and responder rates. Safety and tolerability evaluations included extrapyramidal symptoms (EPS), weight gain, lipid profile, and serum prolactin.

[2] = test system: adult subjects with schizophrenia; experiment: BPRS psychosis cluster score, Clinical Study One; type: in vivo, human; conditions: for Change from Baseline in BPRS Psychosis Cluster Score, Mean (S.D.) / Change from Baseline in BPRS Psychosis Cluster Score, Median / Change from Baseline in BPRS Psychosis Cluster Score, Trt Effect (bifeprunox—placebo) / Change from Baseline in BPRS Psychosis Cluster Score, Mean S.D.: ITT population
Experimental: as §1

[3] = Bifeprunox 10 mg, Endpoint LOCF
[4] = Bifeprunox 20 mg, Endpoint LOCF

## O=c1[nH]c2cccc(N3CCN(Cc4cccc(-c5ccccc5)c4)CC3)c2o1 [Bifeprunox, 7-[4-([1,1′-biphenyl]-3-ylmethyl)-1-piperazinyl]-2(3H)-benzoxazolone]
[1]; Bifeprunox 5 mg, Endpoint LOCF
  Change from Baseline in PANSS General Psychopathology Subscale Score, Mean (S.D.): −4.4 (9.4)
  Change from Baseline in PANSS General Psychopathology Subscale Score, Median: −5
  Trt Effect (versus placebo), PANSS General Psychopathology Subscale Score: −2.2
[1]; Bifeprunox 5 mg, Week 1, LOCF
  Change from Baseline in PANSS General Psychopathology Subscale Score, Mean (S.D.): −1.7 (7.6)
  Change from Baseline in PANSS General Psychopathology Subscale Score, Median: −2
[1]; Bifeprunox 5 mg, Week 2, LOCF
  Change from Baseline in PANSS General Psychopathology Subscale Score, Mean (S.D.): −2.8 (8.1)
  Change from Baseline in PANSS General Psychopathology Subscale Score, Median: −2
[1]; Bifeprunox 5 mg, Week 3, LOCF
  Change from Baseline in PANSS General Psychopathology Subscale Score, Mean (S.D.): −3.3 (8.8)
  Change from Baseline in PANSS General Psychopathology Subscale Score, Median: −3
[1]; Bifeprunox 5 mg, Week 4, LOCF
  Change from Baseline in PANSS General Psychopathology Subscale Score, Mean (S.D.): −3.7 (9.1)
  Change from Baseline in PANSS General Psychopathology Subscale Score, Median: −4
[1]; [3]
  Change from Baseline in PANSS General Psychopathology Subscale Score, Mean (S.D.): −2.0 (9.2)
  Change from Baseline in PANSS General Psychopathology Subscale Score, Median: −1
  Trt Effect (versus placebo), PANSS General Psychopathology Subscale Score: 0.4
[1]; Bifeprunox 10 mg, Week 1, LOCF
  Change from Baseline in PANSS General Psychopathology Subscale Score, Mean (S.D.): −0.9 (6.2)
  Change from Baseline in PANSS General Psychopathology Subscale Score, Median: 0
[1]; Bifeprunox 10 mg, Week 2, LOCF
  Change from Baseline in PANSS General Psychopathology Subscale Score, Mean (S.D.): −1.5 (7.7)
  Change from Baseline in PANSS General Psychopathology Subscale Score, Median: −2
[1]; Bifeprunox 10 mg, Week 3, LOCF
  Change from Baseline in PANSS General Psychopathology Subscale Score, Mean (S.D.): −1.7 (9.0)
  Change from Baseline in PANSS General Psychopathology Subscale Score, Median: −1
[1]; Bifeprunox 10 mg, Week 4, LOCF
  Change from Baseline in PANSS General Psychopathology Subscale Score, Mean (S.D.): −1.4 (8.8)
  Change from Baseline in PANSS General Psychopathology Subscale Score, Median: −1
[1]; [4]
  Change from Baseline in PANSS General Psychopathology Subscale Score, Mean (S.D.): −5.1 (8.8)
  Change from Baseline in PANSS General Psychopathology Subscale Score, Median: −5
  Trt Effect (versus placebo), PANSS General Psychopathology Subscale Score: −2.8
[1]; Bifeprunox 20 mg, Week 1, LOCF
  Change from Baseline in PANSS General Psychopathology Subscale Score, Mean (S.D.): −3.0 (6.4)
  Change from Baseline in PANSS General Psychopathology Subscale Score, Median: −2
[1]; Bifeprunox 20 mg, Week 2, LOCF
  Change from Baseline in PANSS General Psychopathology Subscale Score, Mean (S.D.): −4.4 (7.5)
  Change from Baseline in PANSS General Psychopathology Subscale Score, Median: −5
[1]; Bifeprunox 20 mg, Week 3, LOCF
  Change from Baseline in PANSS General Psychopathology Subscale Score, Mean (S.D.): −5.2 (7.9)
  Change from Baseline in PANSS General Psychopathology Subscale Score, Median: −6
[1]; Bifeprunox 20 mg, Week 4, LOCF
  Change from Baseline in PANSS General Psychopathology Subscale Score, Mean (S.D.): −5.2 (8.4)
  Change from Baseline in PANSS General Psychopathology Subscale Score, Median: −6
[1]; bifeprunox 5 mg, LOCF
  PANSS general psychopathology score, estimate of the treatment effect: −2.2
[1]; bifeprunox 10 mg, LOCF
  PANSS general psychopathology score, estimate of the treatment effect: 0.4
[1]; bifeprunox 20 mg, LOCF
  PANSS general psychopathology score, estimate of the treatment effect: −2.8
[2]; Bifeprunox 5 mg, Endpoint LOCF
  BPRS psychosis cluster score, treatment effect (bifeprunox—placebo): −0.9
  Change from Baseline in BPRS Psychosis Cluster Score, Mean (S.D.): 2.5 (3.8)
  Change from Baseline in BPRS Psychosis Cluster Score, Median: −3
  Change from Baseline in BPRS Psychosis Cluster Score, Trt Effect (bifeprunox—placebo): −0.9
[2]; Bifeprunox 5 mg, Week 1, LOCF
  Change from Baseline in BPRS Psychosis Cluster Score, Mean (S.D.): −1.0 (2.6)
  Change from Baseline in BPRS Psychosis Cluster Score, Median: −1
[2]; Bifeprunox 5 mg, Week 2, LOCF
  Change from Baseline in BPRS Psychosis Cluster Score, Mean S.D.: −1.8 (3.3)
  Change from Baseline in BPRS Psychosis Cluster Score, Median: −2
[2]; Bifeprunox 5 mg, Week 3, LOCF
  Change from Baseline in BPRS Psychosis Cluster Score, Mean (S.D.): −2.2 (3.6)
  Change from Baseline in BPRS Psychosis Cluster Score, Median: −2
[2]; Bifeprunox 5 mg, Week 4, LOCF
  Change from Baseline in BPRS Psychosis Cluster Score, Mean (S.D.): −24 (3.8)
  Change from Baseline in BPRS Psychosis Cluster Score, Median: −3
[2]; [3]
  BPRS psychosis cluster score, treatment effect (bifeprunox—placebo): 0.4
  Change from Baseline in BPRS Psychosis Cluster Score, Mean (S.D.): −1.2 (4.6)
  Change from Baseline in BPRS Psychosis Cluster Score, Median: 0
  Change from Baseline in BPRS Psychosis Cluster Score, Trt Effect (bifeprunox—placebo): 0.4
[2]; Bifeprunox 10 mg, Week 1, LOCF
  Change from Baseline in BPRS Psychosis Cluster Score, Mean (S.D.): −0.7 (3.0)
  Change from Baseline in BPRS Psychosis Cluster Score, Median: −1
[2]; Bifeprunox 10 mg, Week 2, LOCF
  Change from Baseline in BPRS Psychosis Cluster Score, Mean S.D.: −1.1 (3.7)
  Change from Baseline in BPRS Psychosis Cluster Score, Median: −1
[2]; Bifeprunox 10 mg, Week 3, LOCF
  Change from Baseline in BPRS Psychosis Cluster Score, Mean (S.D.): −1.1 (4.2)
  Change from Baseline in BPRS Psychosis Cluster Score, Median: −1
[2]; Bifeprunox 10 mg, Week 4, LOCF
  Change from Baseline in BPRS Psychosis Cluster Score, Mean (S.D.): −1.1 (4.3)
  Change from Baseline in BPRS Psychosis Cluster Score, Median: −1
[2]; [4]
  Change from Baseline in BPRS Psychosis Cluster Score, Mean (S.D.): −2.7 (3.9)
  Change from Baseline in BPRS Psychosis Cluster Score, Median: −3
  Change from Baseline in BPRS Psychosis Cluster Score, Trt Effect (bifeprunox—placebo): −1.1
[2]; Bifeprunox 20 mg, Week 1, LOCF
  Change from Baseline in BPRS Psychosis Cluster Score, Mean (S.D.): −1.5 (2.6)
  Change from Baseline in BPRS Psychosis Cluster Score, Median: −1
[2]; Bifeprunox 20 mg, Week 2, LOCF
  Change from Baseline in BPRS Psychosis Cluster Score, Median: −2
